Test results from article PMC9549646, “Diversification of phenolic glucosides by two UDP-glucosyltransferases featuring complementary regioselectivity” (Microbial Cell Factories, 2022).

Columns and labels:
[1] = target: T1, Prolyl endopeptidase (PEP) (Elizabethkingia meningoseptica, UniProt P27028); test: chromogenic PEP assay, inhibition rate at […]; format: biochemical
T1 construct: gene f1pep1

UGT85A1 = target: T2, UGT85A1 (Arabidopsis thaliana, UniProt Q9SK82); test: in vitro glucosylation by purified enzyme, HPLC ([…] conversion); format: biochemical
T2 construct: N-terminal His6-tagged
T2 sequence (Q9SK82 1-489): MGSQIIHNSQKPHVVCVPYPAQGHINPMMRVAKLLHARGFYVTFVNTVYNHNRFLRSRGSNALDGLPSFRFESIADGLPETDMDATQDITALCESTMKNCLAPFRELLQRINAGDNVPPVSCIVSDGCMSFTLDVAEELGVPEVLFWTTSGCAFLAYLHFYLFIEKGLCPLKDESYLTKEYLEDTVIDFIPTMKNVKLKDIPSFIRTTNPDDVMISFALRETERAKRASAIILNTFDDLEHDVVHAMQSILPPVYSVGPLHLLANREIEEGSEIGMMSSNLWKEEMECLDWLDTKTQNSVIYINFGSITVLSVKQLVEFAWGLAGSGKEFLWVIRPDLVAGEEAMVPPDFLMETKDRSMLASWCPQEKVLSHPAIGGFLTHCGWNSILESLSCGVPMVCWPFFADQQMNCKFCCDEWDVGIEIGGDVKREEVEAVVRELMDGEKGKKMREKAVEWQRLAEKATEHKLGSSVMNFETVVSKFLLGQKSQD

T1 sequence (P27028 21-705): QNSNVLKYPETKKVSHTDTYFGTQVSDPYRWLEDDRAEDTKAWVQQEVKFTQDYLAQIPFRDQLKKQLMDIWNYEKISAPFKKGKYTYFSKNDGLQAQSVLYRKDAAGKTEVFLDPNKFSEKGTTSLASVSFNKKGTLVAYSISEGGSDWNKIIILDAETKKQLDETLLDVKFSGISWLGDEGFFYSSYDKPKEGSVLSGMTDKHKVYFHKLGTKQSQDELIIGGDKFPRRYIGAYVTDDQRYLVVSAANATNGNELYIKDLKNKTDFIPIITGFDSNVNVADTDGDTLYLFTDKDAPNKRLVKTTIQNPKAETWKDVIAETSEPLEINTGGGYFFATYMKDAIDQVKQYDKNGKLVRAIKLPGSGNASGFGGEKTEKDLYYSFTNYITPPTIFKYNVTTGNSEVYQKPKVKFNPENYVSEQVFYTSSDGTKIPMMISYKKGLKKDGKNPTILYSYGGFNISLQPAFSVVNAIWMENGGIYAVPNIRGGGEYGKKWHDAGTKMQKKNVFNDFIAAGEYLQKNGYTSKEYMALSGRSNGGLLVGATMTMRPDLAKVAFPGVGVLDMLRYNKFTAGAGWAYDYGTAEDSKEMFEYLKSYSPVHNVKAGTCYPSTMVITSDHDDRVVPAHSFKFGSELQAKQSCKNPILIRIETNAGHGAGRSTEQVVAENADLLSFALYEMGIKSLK

CC(O[C@@H]1O[C@H](CO)[C@@H](O)[C@H](O)[C@H]1O)c1cccc(O)c1 (stereo partly shown) [14b]
inhibition at 500 µM [1]: > 50%

OCc1ccc(O)cc1 [compound 1, p-hydroxybenzyl alcohol]
in vitro glucosylation by purified enzyme, HPLC (98.9% conversion) (UGT85A1): UGT85A1 showed higher selectivity than RrUGT17, producing only the alcoholic glucoside 1b

OC[C@H]1O[C@@H](OCc2cccc(O)c2)[C@H](O)[C@@H](O)[C@@H]1O [12b]
inhibition at 500 µM [1]: > 50%

CC(O[C@@H]1O[C@H](CO)[C@@H](O)[C@H](O)[C@H]1O)c1ccc(O)cc1 (stereo partly shown) [13b]
inhibition at 500 µM [1]: > 50%
